# Patent US20230332103A1, “Methods and Compositions for Generating Human Forebrain Neural Progenitor Cells and for Maturation Thereof to Parvalbumin+ Interneurons” (Trailhead Biosystems Inc., priority 2021, published 2023)
# “Also recorded” adds a separate entry of the source.
# Experiments:
# Format in all cases: cell-based, human
# [1] = system: forebrain-committed neural stem cells (stage 1 neural stem cells); experiment: HD-DoE 12-factor experiment for stage 2 recipe, optimized for NKX2-1; settings: model maximized for NKX2-1 / dynamic profile, FIG. 7 and 8
# In short: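 Forebrain-committed neural stem cells treated for 3 days after stage 1 with combinations of 12 factors (LDN193189, BMP7, PD0325901, MK2206, A8301, XAV939, CHIR99021, purmorphamine, SANT-1, AGN193109, TTNPB, GSI-XX). Response scored as maximal NKX2-1 and minimal PAX6 expression.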
# MGE progenitor cells = experiment: HD-DoE 12-factor experiment for stage 4 recipe, optimized for MEF2C
# From the text: These effectors are small molecules or proteins. They are commonly used during stepwise differentiation of stem cells to specific fates. The choice of the effectors was based on current literature on neural induction in forebrain region of developing brain and differentiation of stem cells to neural progenitors.
# To evaluate the effectors, experiments with at least 8 factors were designed that can assess the response of cells to 48 or more different combinations of effectors in a range of concentrations. To analyze the models, we focused on expression of genes involved in development and patterning of the forebrain interneurons maturation including LHX6 (Yuan et al. (2018) Elife, 7:e37382), DLX5 (Wang et al. (2010) J. Neuroscience 30:5334-5345), ASCL1 (Shi et al. (2016) J. Biol. Chem. 291:13560-13570). At later stages we focused on interneuron maturation genes including Parvalbumin and absence of somatostatin (Horn and Nicoll (2018) Proc. Natl. Acad. Sci. 115:589-594). The impacts of each effector on gene expression level are defined by a parameter called factor contribution that is calculated for each effector during the modeling.
# To identify the recipe of stage 4 of differentiation, 48 different combinations of effectors generated using Design-of-Experiments compression through D-optimality were robotically prepared. The effector combinations were prepared in a basal media and were subsequently added to the cells, which were then allowed to differentiate. Three days later RNA extraction was performed, and gene expression was obtained using quantitative PCR analysis. The data was normalized and modeled using partial least squares regression analysis to the effector design, resulting in the generation of gene-specific models, which after model tuning for maximal predictive power, provided explanation of the effectors ability to control the expression of individual genes, combinatorically, and individually. Solutions within the tested space could then be explored to address desirability. […] Valproic Acid can inhibit histone deaceylases and increase γ-aminobutyric acid (GABA). […] GDNF is the […] Glial cell line-derived neurotrophic factor and can activate the GDNF pathway.
# To find the set of factors that have the potential to optimize MEF2C in this experiment, a new assessment was done through dynamic profile analysis with focus on maximal expression of MEF2C (FIG. 20).
# [2] = system: stage 2 neural stem cells; experiment: factor criticality analysis (dynamic profile analysis) of stage 3 recipe; set-up: unit not given here; settings: other five factors present
# Protocol: To assess the impact of the elimination of each validated factor, dynamic profile analysis was used and compared the expression level of genes of interest in absence of each finalized factor while others are present. […] In the stage 3 recipe, each of the six finalized factors were removed while the other five factors remained present and the expression levels of ASCL1, DLX1 and LHX6 were assessed compared to the presence of all six factors. […] As expected, in the absence of IGF-1, the value of DLX1 increases to 410, however, ASCL1 and LHX6 decreased to 1390 and 220, respectively.
# [3] = system: stage 2 neural stem cells (cells treated with stage 1 and stage 2 media); experiment: HD-DoE experiment for stage 3 recipe, optimized for ASCL1
# Protocol: To further guide the cells to medial ganglionic eminence progenitor fate, an additional HD-DoE experiment was performed for 3 days on cells that were treated with stage 1 and stage 2 media for total of 6 days prior to start of the experiment. This experiment included 13 effectors, LDN193189, A8301, GNF5837, AZD3147, GSI-XX, Takinib, PD0325901, PD173074, BLU9931, IGF-1, MHY1485, Purmorphamine and Prostratin. In this model, we focused on maximum expression of genes expressed in neuronal progenitor cells in medial ganglionic eminence (MGE) region including ASCL1, LHX6 and DLX1 (Silberberg et al. (2016) Neuron 92:59-74). When the model was optimized for maximum expression of ASCL1 at 1700, A8301, GSI-XX, Purmorphamine and Takinib, which is an inhibitor of TAK1 pathway, had the highest factor contributions, 18.1, 14.1, 12.7 and 10.1 respectively. […]
# [4] = dynamic profile analysis, FIG. 10
SMILES,impact on expression of NKX2-1 [1],"impact on expression of MEF2C (MGE progenitor cells; dynamic profile analysis, FIG. 20)","factor contribution on expression of MEF2C (MGE progenitor cells; significant negative effect, model optimized for maximal expression of MEF2C)",expression level of DLX1 when the effector is removed ([2]; 220 with all six factors),expression level of LHX6 when the effector is removed ([2]; 240 with all six factors),expression level of ASCL1 when the effector is removed ([2]; 1650 with all six factors),"impact on expression of ASCL1 [3, 4]","impact on expression of DLX1 [3, 4]","impact on expression of LHX6 [3, 4]","factor contribution on expression of ASCL1 ([3]; positive, model optimized for maximum expression of ASCL1 at 1700, FIG. 9)"
c1ccc2c(-c3cnn4cc(-c5ccc(N6CCNCC6)cc5)cnc34)ccnc2c1 [LDN193189],increase its expression level,negative effect,11,–,–,–,–,–,–,–
c1ccc2c(Oc3nc(Nc4ccc(N5CCOCC5)cc4)c4ncn(C5CCCCC5)c4n3)cccc2c1 [Purmorphamine],increase its expression level,–,–,stayed the same,190,1200,positive trends; also recorded: Positive impact,did not have a significant negative impact,positive trends; also recorded: Positive impact,12.7
